Results from US20150182675A1, “Ascorbic Acid-Eluting Implantable Medical Devices, Systems, and Related Methods” (South Dakota Board of Regents, priority 2012, published 2015).

Columns and labels:
Assay type in all cases: cell-based
endothelial cells [1] = assay: FDA staining and fluorescence microscopy of endothelial cell cultures (Example One); details: for endothelial cell adhesion: 100 μg added, 15,000 cells per well, day 1; for spreading of endothelial cells: day 5
Protocol: In Example 1, […] of L-ascorbic acid, 100 μg of sirolimus, and 100 μg paclitaxel were added to separate endothelial cell cultures (15,000 cells per well). A control cell culture was also provided in which no agent was added. The endothelial cell adhesion in the culture well was investigated by staining the live cells with fluorescein diacetate (FDA). The FDA-stained live cells were then imaged using fluorescence microscopy on day one, day 3, day five, and day seven of culture. After five days, a determination of the spreading of endothelial cells was made. After seven days, a determination of growth (viability and proliferation) of endothelial cells was made.

endothelial cells [2] = assay: Resazurin fluorometric assay (Alamar Blue) of endothelial cell cultures (Example Two); details: RFU, FIG. 5
Protocol: In order to provide a quantitative characterization of the Example One results, a resazurin fluorometric assay (Alamar Blue) was used. A solution of Alamar Blue was added to the endothelial cell cultures which were already treated with ascorbic acid, sirolimus, or paclitaxel. A control lacking any therapeutic agent was included. After respective time points (1, 3, 5, and 7 days), the fluorescence of the solution was measured using a microplate reader. The collected data is provided as relative fluorescence units (RFU) vs. time for all the three groups (ascorbic acid, sirolimus, and paclitaxel) of samples.

endothelial cells [3] = assay: Phase contrast microscopy of endothelial cell morphology (Example Six); details: 100 μg added, day 7, phase contrast
Protocol: In Example 6, 100 μg of L-ascorbic acid, 100 μg of sirolimus, and 100 μg paclitaxel were added to separate endothelial cell cultures. A control cell culture was also provided in which no agent was added. The effects of L-AA, SIR, and PAT on the growth of endothelial cells was investigated by taking phase contrast images of cells after 7 days using an Axiovert 200 M inverted microscopy (Carl Zeiss) in the bright field imaging mode and examining the cell morphology.

smooth muscle cells [4] = assay: Resazurin fluorometric assay of smooth muscle cell cultures (Example Eight); details: for number of smooth muscle cells in comparison to the control: day 1; for smooth muscle cell growth vs control: day 3
Protocol: In Example 8, a quantitative resazurin fluorometric assay was used. A solution of alamarBlue® from a kit purchased from Biotium Inc. (in Hayward, Calif.) was added to the smooth muscle cell cultures which were already treated with ascorbic acid, sirolimus, or paclitaxel. A control lacking any therapeutic agent was also included. After respective time points (1, 3, 5, and 7 days), the fluorescence of the solution was measured using a microplate reader. The collected data is provided as relative fluorescence units (RFU) vs. time for all the three groups (ascorbic acid, sirolimus, and paclitaxel) of samples.

smooth muscle cells [5] = assay: Phase contrast microscopy of smooth muscle cell morphology (Example Ten); details: day 7, phase contrast
Text: Example 10 provides a further qualitative characterization of the Example Eight results using phase contrast microscopy. That is, the effects of L-AA, SIR, and PAT on the growth of smooth muscle cells was investigated by taking phase contrast images of cells after 7 days using an Axiovert 200 M inverted microscopy (Carl Zeiss) in the bright field imaging mode and examining the cell morphology.

smooth muscle cells [6] = assay: Resazurin fluorometric assay of smooth muscle cells, different doses of ascorbic acid (Example Eleven)
Protocol: (§1) In Example 11, a quantitative resazurin fluorometric assay was used. A solution of alamarBlue® from a kit purchased from Biotium Inc. (in Hayward, Calif.) was added to smooth muscle cell cultures which were already treated with different doses of ascorbic acid. More specifically, the different doses of ascorbic acid included 1 μg/mL, 100 μg/mL, 300 μg/mL, 500 μg/mL, and 1000 μg/mL. A control lacking any ascorbic acid was also included. After respective time points (1, 3, 5, and 7 days), the fluorescence of the solution was measured using a microplate reader. The collected data is provided as relative fluorescence units (RFU) vs. time for all the six groups (control, 1 μg/mL, 100 μg/mL, 300 μg/mL, 500 μg/mL, and 1000 μg/mL) of samples.

endothelial cells [7] = assay: Resazurin fluorometric assay of endothelial cells, different doses of ascorbic acid (Example Seven)
Protocol: as §1, with “7,” for “11,”, “the endothelial” for “smooth muscle”

smooth muscle cells [8] = assay: FDA staining and fluorescence microscopy of smooth muscle cells, different doses of ascorbic acid (Example Twelve); details: for confluence of smooth muscle cells: after 7 days
Text: (§2) Example 12 provides a qualitative characterization of the Example Eleven results using fluorescence microscopy. More specifically, the growth of smooth muscle cells in the presence of five different doses of ascorbic acid was investigated by staining the live cells with fluorescein diacetate (FDA). The FDA-stained live cells were then imaged using fluorescence microscopy on day 1, day 3, day 5, and day 7 of culture. On each day, a determination of growth (viability and proliferation) of smooth muscle cells was made.

smooth muscle cells [9] = assay: FDA staining and fluorescence microscopy of smooth muscle cells (Example Nine); details: for smooth muscle cell growth from one time point to the other: FDA staining, days 1 to 7; for confluence of smooth muscle cells: after 7 days
Text: as §2, with “9” for “12”, “Eight” for “Eleven”, “flurorescence” for “fluorescence”, “three” for “five”, “treatments (ascorbic acid, paclitaxel, and sirolimus)” for “doses of ascorbic acid”

[10] = days 1 to 7, doses 1 to 1000 μg

O=C1O[C@H]([C@@H](O)CO)C(O)=C1O [ascorbic acid, L-ascorbic acid]
endothelial cell adhesion (endothelial cells [1]): excellent | spreading of endothelial cells (endothelial cells [1]; 100 μg added): excellent | growth (viability and proliferation) of endothelial cells (endothelial cells [1]; 100 μg added, day 7): excellent | growth of endothelial cells in comparison to the control (endothelial cells [1]; 100 μg added, day 7): more growth in comparison to the control | growth of endothelial cells relative to cells treated with paclitaxel (endothelial cells [2]): 10 fold | growth of endothelial cells relative to cells treated with sirolimus (endothelial cells [2]): 19 fold | growth of endothelial cells relative to control (no drug) (endothelial cells [2]): 1.6 fold | endothelial cell morphology (endothelial cells [3]): spreading morphology with characteristic polygonal shape | number of smooth muscle cells in comparison to the control (smooth muscle cells [4]): significantly lesser number of cells | smooth muscle cell growth vs control (smooth muscle cells [4]): significantly inhibited the cell growth | effect on growth of SMCs (overall) (smooth muscle cells [4]; days 1 to 7): significantly inhibited growth of SMCs | order of SMC viability and proliferation (decreasing) (smooth muscle cells [4]; days 1 to 7): Control>>ascorbic acid>sirolimus=paclitaxel | smooth muscle cell morphology and spreading (smooth muscle cells [5]): spindle-shaped, but they were less spreading when compared to the control | number of smooth muscle cells vs control and 1 μg dose (smooth muscle cells [6]; day 1, doses 100 to 1000 μg): significantly fewer cells | number of smooth muscle cells vs 100 and 300 μg doses (smooth muscle cells [6]; day 3 (similar days 5 and 7), 500 and 1000 μg doses): fewer cells in comparison to the 100 and 300 μg doses | order of viability and proliferation of smooth muscle cells for the different doses (decreasing) (smooth muscle cells [6]; [10]): control=1 μg>>100 μg=300 μg>500 μg=1000 μg | number of endothelial cells vs control (endothelial cells [7]; day 1, all doses (1 to 1000 μg/mL)): no significant differences | number of endothelial cells vs control and other doses (endothelial cells [7]; day 3, 100 μg dose): significantly greater | number of endothelial cells vs control and other doses (endothelial cells [7]; day 5, 100 μg dose): significantly greater number of cells | number of endothelial cells vs control and other doses (endothelial cells [7]; day 5, 300 μg dose): significantly greater number of cells | number of endothelial cells vs control and other doses (endothelial cells [7]; day 5, 500 μg dose): significantly greater number of cells | number of endothelial cells among the groups (endothelial cells [7]; day 7, 300 μg/mL dose): maximum number of cells | number of endothelial cells among the groups (endothelial cells [7]; day 7, 100 dose): maximum number of cells | order of viability and proliferation of endothelial cells for the different doses (increasing) (endothelial cells [7]; [10]): 1000 μg<1 μg=control=500 μg<<300 μg=100 μg | inhibitory effect on smooth muscle cells (smooth muscle cells [8]; 1 μg dose): no inhibitory effect | inhibitory effect on smooth muscle cells (smooth muscle cells [8]; 1000 μg dose): maximum inhibitory effect | confluence of smooth muscle cells (smooth muscle cells [8]; 1 μg dose): > 90% | confluence of smooth muscle cells (smooth muscle cells [8]; 100 μg dose): 50-60% | confluence of smooth muscle cells (smooth muscle cells [8]; 300 μg dose): 50-60% | confluence of smooth muscle cells (smooth muscle cells [8]; 500 μg dose): 30-40% | confluence of smooth muscle cells (smooth muscle cells [8]; 1000 μg dose): 30-40% | smooth muscle cell growth (smooth muscle cells [8]; doses ranging from 100 to 1000 μg, days 1 to 7): significantly inhibited | smooth muscle cell growth from one time point to the other (smooth muscle cells [9]): significantly inhibited | confluence of smooth muscle cells (smooth muscle cells [9]): 50-60%

CC(=O)O[C@H]1C(=O)[C@@]2(C)[C@H]([C@H](OC(=O)c3ccccc3)[C@]3(O)C[C@H](OC(=O)[C@H](O)[C@@H](NC(=O)c4ccccc4)c4ccccc4)C(C)=C1C3(C)C)[C@]1(OC(C)=O)CO[C@@H]1C[C@@H]2O [paclitaxel]
endothelial cell adhesion (endothelial cells [1]): poor | spreading of endothelial cells (endothelial cells [1]; 100 μg added): poor | growth (viability and proliferation) of endothelial cells (endothelial cells [1]; 100 μg added, day 7): poor | endothelial cell morphology (endothelial cells [3]): uncharacteristic oval or round shape with no spreading morphology | number of smooth muscle cells in comparison to the control (smooth muscle cells [4]): significantly lesser number of cells | smooth muscle cell growth vs control (smooth muscle cells [4]): significantly inhibited the cell growth | number of smooth muscle cells vs ascorbic acid treatment (smooth muscle cells [4]; day 5 (similar on day 7)): lesser numbers of cells than that of the ascorbic acid treatment | order of SMC viability and proliferation (decreasing) (smooth muscle cells [4]; days 1 to 7): Control>>ascorbic acid>sirolimus=paclitaxel | smooth muscle cell morphology and spreading (smooth muscle cells [5]): not spreading and only very few cells were spindle-shaped | smooth muscle cell growth from one time point to the other (smooth muscle cells [9]): significantly inhibited | confluence of smooth muscle cells (smooth muscle cells [9]): about 20%

CO[C@H]1C[C@@H]2CC[C@@H](C)[C@@](O)(O2)C(=O)C(=O)N2CCCC[C@H]2C(=O)O[C@H]([C@H](C)C[C@@H]2CC[C@@H](O)[C@H](OC)C2)CC(=O)[C@H](C)/C=C(\C)[C@@H](O)[C@@H](OC)C(=O)[C@H](C)C[C@H](C)/C=C/C=C/C=C/1C [sirolimus]
confluence of smooth muscle cells (smooth muscle cells [9]): about 20%
